Test results: ChEMBL document CHEMBL1201862, “PubChem BioAssay data set” (2004)
Calls of active or inactive are those of the source.

Columns and labels:
Mucolipin-3 = Mucolipin-3 (Homo sapiens, UniProt Q8TDD5); experiment: Dose response cell-based high-throughput screening assay for agonists of the transient receptor potential channel ML3 (TRPML3). [Related pubchem assays: 1526, 1424, 1448 ]; format: functional
Ion channel NompC = Ion channel NompC (Danio rerio, UniProt Q7T1G6); experiment: Fluorescence counterscreen assay for TRPML3 agonists: dose response cell-based high-throughput screening assay to identify agonists of the transient receptor potential channel N1 (TRPN1). [Related pubchem assays: 1526, 1424, 1448 ]; format: functional
Chain of Ion channel NompC (Q7T1G6 whole entry): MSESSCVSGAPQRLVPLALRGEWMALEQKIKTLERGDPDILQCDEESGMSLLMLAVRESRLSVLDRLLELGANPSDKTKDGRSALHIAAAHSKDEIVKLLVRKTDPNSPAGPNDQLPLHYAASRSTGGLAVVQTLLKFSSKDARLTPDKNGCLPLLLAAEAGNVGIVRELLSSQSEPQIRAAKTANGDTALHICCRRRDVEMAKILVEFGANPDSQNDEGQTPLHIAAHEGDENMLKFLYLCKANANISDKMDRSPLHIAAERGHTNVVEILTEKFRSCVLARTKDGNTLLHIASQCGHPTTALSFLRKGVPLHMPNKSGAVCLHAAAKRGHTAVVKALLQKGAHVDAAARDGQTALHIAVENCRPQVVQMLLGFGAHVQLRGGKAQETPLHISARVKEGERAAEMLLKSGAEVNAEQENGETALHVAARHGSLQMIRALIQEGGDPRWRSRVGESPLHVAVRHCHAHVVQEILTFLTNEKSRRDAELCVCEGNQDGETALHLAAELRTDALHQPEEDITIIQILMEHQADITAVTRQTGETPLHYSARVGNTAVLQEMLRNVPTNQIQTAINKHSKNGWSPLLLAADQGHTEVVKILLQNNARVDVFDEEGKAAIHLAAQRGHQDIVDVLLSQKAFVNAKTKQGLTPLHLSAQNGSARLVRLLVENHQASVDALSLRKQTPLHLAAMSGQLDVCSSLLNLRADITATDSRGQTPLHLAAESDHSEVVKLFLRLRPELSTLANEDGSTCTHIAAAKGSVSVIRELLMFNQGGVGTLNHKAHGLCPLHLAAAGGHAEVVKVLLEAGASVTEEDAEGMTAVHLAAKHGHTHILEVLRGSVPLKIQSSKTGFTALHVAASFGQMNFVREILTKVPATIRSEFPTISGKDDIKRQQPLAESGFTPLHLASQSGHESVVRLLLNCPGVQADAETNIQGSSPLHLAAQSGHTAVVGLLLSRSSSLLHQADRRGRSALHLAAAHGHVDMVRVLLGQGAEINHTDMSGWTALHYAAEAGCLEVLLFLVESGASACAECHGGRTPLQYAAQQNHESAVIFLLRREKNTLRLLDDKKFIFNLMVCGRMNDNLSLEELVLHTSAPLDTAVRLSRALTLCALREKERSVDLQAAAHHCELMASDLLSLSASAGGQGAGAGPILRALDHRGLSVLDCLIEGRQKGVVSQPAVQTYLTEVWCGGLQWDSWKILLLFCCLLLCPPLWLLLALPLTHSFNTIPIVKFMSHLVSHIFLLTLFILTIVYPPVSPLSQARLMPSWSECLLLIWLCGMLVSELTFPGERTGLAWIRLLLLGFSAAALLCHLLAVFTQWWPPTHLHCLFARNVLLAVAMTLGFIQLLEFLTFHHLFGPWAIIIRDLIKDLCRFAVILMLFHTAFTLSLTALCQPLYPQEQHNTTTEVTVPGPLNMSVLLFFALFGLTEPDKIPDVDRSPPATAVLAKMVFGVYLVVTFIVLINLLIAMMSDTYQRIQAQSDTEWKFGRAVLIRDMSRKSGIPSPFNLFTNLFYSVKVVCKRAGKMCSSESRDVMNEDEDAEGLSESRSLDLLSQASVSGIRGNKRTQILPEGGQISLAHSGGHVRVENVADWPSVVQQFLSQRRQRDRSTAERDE

[1] = target: T1, Alkaline phosphatase, tissue-nonspecific isozyme (Homo sapiens, UniProt P05186)
T1 sequence (P05186 whole entry): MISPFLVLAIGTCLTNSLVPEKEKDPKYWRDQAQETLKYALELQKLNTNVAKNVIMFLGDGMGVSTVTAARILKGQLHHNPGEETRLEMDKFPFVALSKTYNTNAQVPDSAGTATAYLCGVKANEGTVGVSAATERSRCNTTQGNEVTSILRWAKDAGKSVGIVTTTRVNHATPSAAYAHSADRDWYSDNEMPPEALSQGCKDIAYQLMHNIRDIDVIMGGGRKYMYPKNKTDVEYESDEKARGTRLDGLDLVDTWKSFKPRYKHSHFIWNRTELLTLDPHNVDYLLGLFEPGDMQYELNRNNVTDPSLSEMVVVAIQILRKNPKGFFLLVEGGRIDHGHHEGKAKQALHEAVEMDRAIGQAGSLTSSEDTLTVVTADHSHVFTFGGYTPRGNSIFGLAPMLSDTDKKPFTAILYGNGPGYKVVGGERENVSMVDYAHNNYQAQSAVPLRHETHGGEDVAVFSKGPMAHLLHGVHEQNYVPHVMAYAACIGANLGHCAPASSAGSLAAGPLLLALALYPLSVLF

[2] = target: 26S proteasome non-ATPase regulatory subunit 14 (Homo sapiens, UniProt O00487); experiment: inhibition of proteasome subunit RPN11 – biochemical, fluorescence polarization, uHTS hits, confirmation (AID 602368); format: functional
Chain of 26S proteasome non-ATPase regulatory subunit 14 (O00487 whole entry): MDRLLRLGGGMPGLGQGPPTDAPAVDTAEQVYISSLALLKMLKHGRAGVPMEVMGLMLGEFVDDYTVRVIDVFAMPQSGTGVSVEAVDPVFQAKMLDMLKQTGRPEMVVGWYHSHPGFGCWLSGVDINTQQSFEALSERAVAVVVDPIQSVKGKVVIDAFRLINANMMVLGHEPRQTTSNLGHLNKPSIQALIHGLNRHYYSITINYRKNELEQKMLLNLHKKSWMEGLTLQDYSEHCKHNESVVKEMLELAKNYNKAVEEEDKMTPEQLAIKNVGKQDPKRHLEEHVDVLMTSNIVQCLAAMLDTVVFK

Prothrombin = Prothrombin (Bos taurus, UniProt P00735); experiment: thrombin inhibition, dose response, biochemical, fluorescence polarization, uHTS hits (AID 602369); format: functional
[3] = C. albicans growth with fluconazole, confirmation, fluorescence, retest (AID 2467); format: functional, cell-based
[4] = target: 72 kDa type IV collagenase (Homo sapiens, UniProt P08253); experiment: Dose Response validation of uHTS RPN11 inhibitor hits using a MMP-2 Fluorescence assay.; format: functional
Chain of 72 kDa type IV collagenase (P08253 whole entry): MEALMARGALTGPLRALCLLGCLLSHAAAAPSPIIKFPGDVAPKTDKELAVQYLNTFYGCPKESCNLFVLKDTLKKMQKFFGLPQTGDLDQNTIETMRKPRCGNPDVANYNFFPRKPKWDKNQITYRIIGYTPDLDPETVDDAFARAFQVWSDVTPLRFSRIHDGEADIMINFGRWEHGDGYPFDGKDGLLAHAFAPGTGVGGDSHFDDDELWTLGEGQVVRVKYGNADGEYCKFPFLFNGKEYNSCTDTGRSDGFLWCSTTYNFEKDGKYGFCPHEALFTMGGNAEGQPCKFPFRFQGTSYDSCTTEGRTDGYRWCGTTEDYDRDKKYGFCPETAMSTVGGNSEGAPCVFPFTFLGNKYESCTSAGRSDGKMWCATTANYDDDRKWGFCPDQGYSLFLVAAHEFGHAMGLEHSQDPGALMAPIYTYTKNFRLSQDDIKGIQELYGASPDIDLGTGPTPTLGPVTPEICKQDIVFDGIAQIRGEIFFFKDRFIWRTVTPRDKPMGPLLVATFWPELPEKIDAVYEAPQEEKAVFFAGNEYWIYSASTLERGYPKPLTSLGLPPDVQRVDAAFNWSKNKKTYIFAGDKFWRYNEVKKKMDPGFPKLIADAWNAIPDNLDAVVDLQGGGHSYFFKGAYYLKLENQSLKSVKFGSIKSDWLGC

NS3 = NS3 (Hepatitis C virus, UniProt A3EZJ3); experiment: PubChem AID 2173; design: species or system Hepacivirus hominis
Chain of NS3 (A3EZJ3 whole entry): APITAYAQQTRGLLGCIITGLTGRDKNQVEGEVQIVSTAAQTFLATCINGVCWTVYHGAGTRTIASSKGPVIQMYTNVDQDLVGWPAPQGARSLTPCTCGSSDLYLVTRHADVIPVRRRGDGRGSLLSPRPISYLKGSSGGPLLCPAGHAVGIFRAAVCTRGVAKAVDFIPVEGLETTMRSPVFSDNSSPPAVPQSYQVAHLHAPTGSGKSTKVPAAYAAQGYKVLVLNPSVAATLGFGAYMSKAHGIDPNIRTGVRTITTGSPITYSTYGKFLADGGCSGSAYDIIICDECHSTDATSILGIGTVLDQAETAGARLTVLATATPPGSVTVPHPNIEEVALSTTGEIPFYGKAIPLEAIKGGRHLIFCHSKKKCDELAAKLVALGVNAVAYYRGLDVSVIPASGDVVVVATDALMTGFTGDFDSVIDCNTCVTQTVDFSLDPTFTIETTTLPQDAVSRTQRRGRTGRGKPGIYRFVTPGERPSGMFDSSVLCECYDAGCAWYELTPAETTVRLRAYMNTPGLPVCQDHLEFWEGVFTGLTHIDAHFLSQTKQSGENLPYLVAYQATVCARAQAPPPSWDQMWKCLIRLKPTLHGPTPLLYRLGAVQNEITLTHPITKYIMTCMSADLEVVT

[5] = NIH-3T3 fibroblast cytotoxicity, dose response, cytotoxicity control, cell-based, fluorescence, Alamar Blue, secondary assay (AID 2327); format: functional;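 further: NIH-3T3 mouse fibroblasts cultured with fluconazole at 8 µg/mL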
Estrogen receptor = target: T2, Estrogen receptor (Homo sapiens, UniProt P03372); experiment: potentiators of ERα–SRC-1 coactivator binding, dose response, biochemical, TR-FRET, ERα LBD (AID 737)
T2 sequence (P03372 whole entry): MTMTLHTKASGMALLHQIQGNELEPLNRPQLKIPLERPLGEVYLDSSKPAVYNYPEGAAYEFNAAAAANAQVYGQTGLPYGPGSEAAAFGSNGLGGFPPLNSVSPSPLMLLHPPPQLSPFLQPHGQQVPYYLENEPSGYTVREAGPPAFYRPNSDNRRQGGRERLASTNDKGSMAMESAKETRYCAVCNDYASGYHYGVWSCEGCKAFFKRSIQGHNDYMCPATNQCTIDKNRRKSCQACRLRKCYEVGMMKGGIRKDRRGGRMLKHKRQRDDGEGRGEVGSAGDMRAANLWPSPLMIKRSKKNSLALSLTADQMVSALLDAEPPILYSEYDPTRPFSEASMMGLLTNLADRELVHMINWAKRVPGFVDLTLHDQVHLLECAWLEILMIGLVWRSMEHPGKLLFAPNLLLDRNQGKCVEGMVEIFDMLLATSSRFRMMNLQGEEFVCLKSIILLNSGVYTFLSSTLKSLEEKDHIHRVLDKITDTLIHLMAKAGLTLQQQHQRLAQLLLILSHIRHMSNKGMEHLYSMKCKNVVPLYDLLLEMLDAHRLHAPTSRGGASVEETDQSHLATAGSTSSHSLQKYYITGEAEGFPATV

[6] = target: T3, Heat shock factor protein 1 (Mus musculus, UniProt P38532); experiment: inhibition of MG132-induced HSE-luciferase signal, confirmation, cell-based, NIH3T3, luminescence, dose retest (AID 2382); format: functional;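 further: NIH3T3 fibroblasts with HSF1-driven luciferase reporter stressed by proteasome inhibitor MG132; luminescence from HSF1-driven luciferase expression after 8 hours of MG132 stress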
T3 sequence (P38532 whole entry): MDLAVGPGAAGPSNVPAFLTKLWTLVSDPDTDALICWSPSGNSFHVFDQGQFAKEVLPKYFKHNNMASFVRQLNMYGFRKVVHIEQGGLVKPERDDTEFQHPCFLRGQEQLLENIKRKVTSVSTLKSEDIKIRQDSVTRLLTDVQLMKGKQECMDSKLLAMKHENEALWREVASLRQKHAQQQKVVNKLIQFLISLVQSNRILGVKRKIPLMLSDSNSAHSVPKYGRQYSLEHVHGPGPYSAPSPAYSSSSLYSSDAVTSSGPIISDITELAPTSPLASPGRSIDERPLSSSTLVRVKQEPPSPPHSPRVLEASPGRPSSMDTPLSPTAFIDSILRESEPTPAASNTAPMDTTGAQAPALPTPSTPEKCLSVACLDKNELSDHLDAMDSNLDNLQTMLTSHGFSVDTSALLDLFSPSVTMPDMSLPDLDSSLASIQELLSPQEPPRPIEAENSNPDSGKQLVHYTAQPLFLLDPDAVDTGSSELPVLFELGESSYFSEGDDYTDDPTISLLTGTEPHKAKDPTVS

Aspartyl aminopeptidase = Aspartyl aminopeptidase (Plasmodium falciparum 3D7, UniProt Q8I2J3)
Chain of Aspartyl aminopeptidase (Q8I2J3 whole entry): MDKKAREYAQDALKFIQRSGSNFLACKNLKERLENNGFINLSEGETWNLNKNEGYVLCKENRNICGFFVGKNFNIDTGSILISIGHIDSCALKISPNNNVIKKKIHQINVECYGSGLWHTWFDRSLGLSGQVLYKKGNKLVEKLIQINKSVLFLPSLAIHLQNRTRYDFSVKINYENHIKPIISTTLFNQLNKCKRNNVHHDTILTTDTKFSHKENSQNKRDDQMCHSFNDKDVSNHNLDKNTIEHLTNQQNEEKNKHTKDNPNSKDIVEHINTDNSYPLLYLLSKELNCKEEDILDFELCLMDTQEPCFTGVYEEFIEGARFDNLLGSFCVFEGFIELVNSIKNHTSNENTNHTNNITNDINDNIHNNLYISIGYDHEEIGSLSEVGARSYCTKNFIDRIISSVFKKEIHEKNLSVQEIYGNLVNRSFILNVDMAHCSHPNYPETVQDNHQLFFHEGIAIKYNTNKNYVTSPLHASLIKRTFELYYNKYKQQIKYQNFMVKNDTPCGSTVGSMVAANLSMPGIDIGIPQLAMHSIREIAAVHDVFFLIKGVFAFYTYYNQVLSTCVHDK

Procathepsin L = Procathepsin L (Homo sapiens, UniProt P07711)
Chain of Procathepsin L (P07711 whole entry): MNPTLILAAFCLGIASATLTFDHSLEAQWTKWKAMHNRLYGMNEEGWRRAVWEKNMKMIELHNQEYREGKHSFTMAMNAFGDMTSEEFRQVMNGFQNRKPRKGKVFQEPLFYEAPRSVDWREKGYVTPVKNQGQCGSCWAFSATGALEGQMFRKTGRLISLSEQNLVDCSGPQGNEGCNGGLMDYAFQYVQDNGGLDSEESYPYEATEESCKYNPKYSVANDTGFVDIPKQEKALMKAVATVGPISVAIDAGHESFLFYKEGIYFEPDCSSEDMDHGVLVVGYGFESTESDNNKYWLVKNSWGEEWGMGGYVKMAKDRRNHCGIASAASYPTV

[7] = inhibitors of Bluetongue virus cytopathic effect, confirmation, arbovirus, BSR cells (AID 1250); format: functional;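 further: protection from viral cytopathic effect measured as cell viability by ATP luminescence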
Aminopeptidase N = target: T4, Aminopeptidase N (Plasmodium falciparum FcB1/Columbia, UniProt O96935); experiment: P. falciparum M1AAP inhibitors, biochemical, fluorogenic H-Leu-NHMec substrate, 1536-well (AID 1445); design: species or system Plasmodium falciparum 3D7, 3D7
T4 sequence (O96935 whole entry): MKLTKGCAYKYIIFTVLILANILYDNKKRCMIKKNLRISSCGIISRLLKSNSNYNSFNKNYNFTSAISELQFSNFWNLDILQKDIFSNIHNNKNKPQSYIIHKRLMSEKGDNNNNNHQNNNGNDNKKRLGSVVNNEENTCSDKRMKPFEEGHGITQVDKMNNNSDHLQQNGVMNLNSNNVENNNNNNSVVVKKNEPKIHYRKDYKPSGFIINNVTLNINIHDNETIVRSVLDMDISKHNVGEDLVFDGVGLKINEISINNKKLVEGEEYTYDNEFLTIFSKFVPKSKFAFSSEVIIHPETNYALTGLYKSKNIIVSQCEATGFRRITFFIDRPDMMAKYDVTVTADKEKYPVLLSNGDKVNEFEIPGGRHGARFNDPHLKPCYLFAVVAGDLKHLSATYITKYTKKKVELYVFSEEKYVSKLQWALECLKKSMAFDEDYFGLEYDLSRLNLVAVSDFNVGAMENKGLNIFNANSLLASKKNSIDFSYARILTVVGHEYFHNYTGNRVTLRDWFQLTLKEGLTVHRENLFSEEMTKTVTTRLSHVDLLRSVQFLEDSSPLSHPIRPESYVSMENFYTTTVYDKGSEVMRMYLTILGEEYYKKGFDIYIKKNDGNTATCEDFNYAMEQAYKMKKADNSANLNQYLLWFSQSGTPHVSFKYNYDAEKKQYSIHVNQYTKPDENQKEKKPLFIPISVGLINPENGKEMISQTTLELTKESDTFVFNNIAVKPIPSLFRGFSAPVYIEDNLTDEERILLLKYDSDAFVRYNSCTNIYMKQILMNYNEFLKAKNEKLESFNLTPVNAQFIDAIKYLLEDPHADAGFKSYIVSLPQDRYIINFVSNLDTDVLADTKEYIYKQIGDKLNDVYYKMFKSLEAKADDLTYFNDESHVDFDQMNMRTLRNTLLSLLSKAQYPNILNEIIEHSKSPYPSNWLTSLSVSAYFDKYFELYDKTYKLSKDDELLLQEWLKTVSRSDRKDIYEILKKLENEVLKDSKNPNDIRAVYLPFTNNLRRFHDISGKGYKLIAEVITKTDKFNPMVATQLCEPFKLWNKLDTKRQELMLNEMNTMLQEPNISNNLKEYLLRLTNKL

Insulin-degrading enzyme = target: T5, Insulin-degrading enzyme (Homo sapiens, UniProt P14735); experiment: Dose Response: Fluorescence polarization-based cell-based high throughput dose response assay for inhibitors of insulin-degrading enzyme (IDE). [Related pubchem assays: 434962 (Primary screen (IDE inhibitors in singlicate)), 449730 (Counterscreen (Cytotoxicity in triplicate)), 435028 (Confirmation (IDE inhibitors in triplicate)), 434984 (Summary …; format: functional
T5 sequence (P14735 whole entry): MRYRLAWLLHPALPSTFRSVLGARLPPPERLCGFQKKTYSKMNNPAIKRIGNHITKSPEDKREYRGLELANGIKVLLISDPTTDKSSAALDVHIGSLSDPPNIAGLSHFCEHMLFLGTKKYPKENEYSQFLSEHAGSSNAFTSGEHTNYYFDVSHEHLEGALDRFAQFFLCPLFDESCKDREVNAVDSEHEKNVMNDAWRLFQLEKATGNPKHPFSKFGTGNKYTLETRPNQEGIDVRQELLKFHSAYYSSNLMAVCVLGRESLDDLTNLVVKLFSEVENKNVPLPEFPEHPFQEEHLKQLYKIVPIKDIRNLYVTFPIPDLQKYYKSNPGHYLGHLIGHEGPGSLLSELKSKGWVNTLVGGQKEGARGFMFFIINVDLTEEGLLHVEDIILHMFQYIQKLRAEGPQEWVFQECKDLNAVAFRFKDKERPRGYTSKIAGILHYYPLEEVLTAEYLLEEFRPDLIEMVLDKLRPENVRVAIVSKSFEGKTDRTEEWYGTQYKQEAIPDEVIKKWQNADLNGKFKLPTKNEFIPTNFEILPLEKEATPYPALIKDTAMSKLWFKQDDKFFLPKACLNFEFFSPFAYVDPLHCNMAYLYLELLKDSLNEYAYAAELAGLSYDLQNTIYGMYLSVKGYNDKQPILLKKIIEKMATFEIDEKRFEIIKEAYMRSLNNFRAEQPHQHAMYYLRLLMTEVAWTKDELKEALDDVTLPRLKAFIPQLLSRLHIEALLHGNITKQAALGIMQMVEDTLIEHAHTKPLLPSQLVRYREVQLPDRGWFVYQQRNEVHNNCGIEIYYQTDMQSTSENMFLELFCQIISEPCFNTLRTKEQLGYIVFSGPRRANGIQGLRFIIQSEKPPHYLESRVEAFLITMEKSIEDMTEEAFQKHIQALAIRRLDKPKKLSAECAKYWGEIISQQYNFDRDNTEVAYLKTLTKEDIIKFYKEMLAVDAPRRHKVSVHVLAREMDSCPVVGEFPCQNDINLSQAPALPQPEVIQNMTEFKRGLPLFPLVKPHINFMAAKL

[8] = Luminescence-based cell-based high throughput dose response assay to identify activators of the DAF-12 from the parasite S. stercoralis (ssDAF-12).; format: functional
[9] = enhancers of respiration in Yfh1-depleted yeast, dose response, Friedreich's ataxia, plus single-dose screen (AID 1465); format: functional;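 further: yeast depleted of Yfh1p frataxin homolog grown on glycerol needing respiration; WST-1 tetrazolium dye reduction as measure of cellular dehydrogenase metabolic activity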
[10] = Counterscreen for IDE inhibitors: Luminescence-based cell-based high throughput dose response assay to identify compounds that are cytotoxic to HEK cells. [Related pubchem assays: 434962 (Primary screen (IDE inhibitors in singlicate)), 449730 (Counterscreen (Cytotoxicity in triplicate)), 435028 (Confirmation (IDE inhibitors in triplicate)) …; format: functional; settings: HEK293
[11] = target: T6, Oxysterols receptor LXR-beta (Homo sapiens, UniProt P55055); experiment: LXR agonists, Gal4 luciferase reporter, dose response, counter-screen for ssDAF-12 agonist project, cell-based, luminescence, HEK293, S. stercoralis campaign (AID 720737); format: functional; settings: read-out: IC50 (the source's name)
T6 sequence (P55055 whole entry): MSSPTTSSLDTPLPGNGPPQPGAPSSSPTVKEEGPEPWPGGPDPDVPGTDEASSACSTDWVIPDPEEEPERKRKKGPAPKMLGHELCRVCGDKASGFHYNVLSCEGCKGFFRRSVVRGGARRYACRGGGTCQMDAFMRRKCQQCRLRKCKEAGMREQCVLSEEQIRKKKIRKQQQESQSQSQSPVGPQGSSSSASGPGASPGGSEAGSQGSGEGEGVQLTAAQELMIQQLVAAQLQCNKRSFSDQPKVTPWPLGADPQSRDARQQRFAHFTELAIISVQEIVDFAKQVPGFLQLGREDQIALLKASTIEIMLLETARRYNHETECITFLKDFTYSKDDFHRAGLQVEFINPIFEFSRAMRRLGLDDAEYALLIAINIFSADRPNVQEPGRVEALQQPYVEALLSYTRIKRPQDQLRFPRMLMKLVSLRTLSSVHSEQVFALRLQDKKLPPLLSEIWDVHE

Chain of Mucolipin-3 (Q8TDD5 whole entry): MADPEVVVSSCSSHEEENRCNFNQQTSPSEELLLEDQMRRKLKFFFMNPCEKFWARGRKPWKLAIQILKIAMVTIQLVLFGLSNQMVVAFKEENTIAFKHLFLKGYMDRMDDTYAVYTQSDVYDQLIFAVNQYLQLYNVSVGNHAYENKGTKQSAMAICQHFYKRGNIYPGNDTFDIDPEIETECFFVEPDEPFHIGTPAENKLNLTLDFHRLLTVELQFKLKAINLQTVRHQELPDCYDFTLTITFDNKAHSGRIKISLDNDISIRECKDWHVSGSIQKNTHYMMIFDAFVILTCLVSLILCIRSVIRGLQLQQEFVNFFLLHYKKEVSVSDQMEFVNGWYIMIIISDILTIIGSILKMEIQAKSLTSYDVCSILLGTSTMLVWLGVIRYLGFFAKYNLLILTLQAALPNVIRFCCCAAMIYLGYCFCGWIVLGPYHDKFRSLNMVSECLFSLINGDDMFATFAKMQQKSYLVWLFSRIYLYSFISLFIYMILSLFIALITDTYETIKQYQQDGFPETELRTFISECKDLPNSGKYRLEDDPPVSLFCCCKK

For `CCOC(=O)C(C)(C)N(Cc1cccc(C)c1)S(=O)(=O)c1cccc([N+](=O)[O-])c1`, the EC50 (Mucolipin-3) was > 29.9 µM (not active) and the EC50 (Ion channel NompC) was > 29.9 µM (not active).
In the case of `Cc1ccc(C(=O)NN=C(S)Nc2cccc3ccccc23)s1`, the EC50 [1] is reported as 62.6 µM (not active).
With `O=C1NC(=S)N(CCC2=CCCCC2)C(=O)/C1=C/NNC(=O)c1ccccc1` the IC50 [2] was 43.9 µM (active), the IC50 (Prothrombin) was 62.2 µM (active) and the EC50 [3] was > 38 µM (not active). The IC50 [4] was > 100 µM (inactive), the IC50 (NS3) was 5.41 µM (active) and the EC50 [5] was > 150 µM (inconclusive).
For `COc1nnc(-c2ccc(C(=O)N3C[C@@H]4C[C@H](C3)c3cccc(=O)n3C4)cc2)c2ccccc12`, the EC50 (Estrogen receptor) was 15 µM (active) and the EC50 [6] was > 195 µM (not active).
For `O=C(O)c1c[nH]nc1-n1cnnn1`, the IC50 (Aspartyl aminopeptidase) was 1.27 µM (active) and the IC50 (Procathepsin L) was > 59.6 µM (not active).
In the case of `Cc1ccc(C(=O)Nc2scc(-c3ccccc3)c2C(=O)O)o1`, the IC50 [7] is reported as 34 µM (active) and the IC50 (Aminopeptidase N) is reported as 68.4 µM (active).
For `N#C/C(=C\c1ccc(N2CCOCC2)o1)C(=O)NCC1CCCO1` (stereo not given), the IC50 (Insulin-degrading enzyme) was 25.3 µM (not active), the IC50 [8] was > 67.5 µM (inactive) and the EC50 [9] was > 100 µM (active). For the same molecule, the IC50 [10] was > 55.7 µM (not active) and the EC50 [11] was > 67.5 µM (inactive).
